Reference: ChEMBL document CHEMBL1201862, “PubChem BioAssay data set” (2004)
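Results reflect a 48-hour exposure of cells in 96-well plates to compound at five concentrations. Abbreviation: GI50, concentration required for 50% inhibition of growth.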 Active and inactive are the calls of the source. Cut-off read from the data, not from the text of the source: active = GI50 up to about 1.1 µM and inactive = higher.

Experiments:
Test in all cases: DTP human tumour cell line panel, 48 h
[1] = test system: SF-539
[2] = test system: HCC 2998
[3] = test system: UACC-257
[4] = test system: KM12
[5] = test system: SK-OV-3
[6] = test system: HCT-116
[7] = test system: NCI-H226
[8] = test system: RPMI-8226
[9] = test system: UO-31
[10] = test system: 786-0
[11] = test system: RXF 393
[12] = test system: U-251
[13] = test system: M14
[14] = test system: CCRF-CEM
[15] = test system: HT-29
[16] = test system: SNB-19
[17] = test system: SNB-75
[18] = test system: SF-295
[19] = test system: OVCAR-3

Measured: GI50

Cc1ccccc1C1OC1C(=O)c1ccccc1N (configuration not stated)
inactive: [1] 29.9 µM | [2] > 100 µM | [3] 74.3 µM | [4] 39.7 µM | [5] > 100 µM | [6] 44.1 µM | [7] > 100 µM | [8] 46.7 µM | [9] 78.7 µM | [10] 59.4 µM | [11] 90.4 µM | [12] > 100 µM | [13] 47.3 µM | [14] > 100 µM | [15] 45.3 µM | [16] 56.4 µM

Brc1ccc(-c2ccc(-c3ccc(-c4ccc(Br)s4)s3)s2)s1
inactive: [1] > 100 µM | [2] > 100 µM | [3] > 100 µM | [4] > 100 µM | [5] > 100 µM | [17] > 100 µM | [18] > 100 µM | [6] > 100 µM | [19] > 100 µM | [7] 54.1 µM | [8] > 100 µM | [9] > 100 µM | [10] > 100 µM | [11] > 100 µM | [12] > 100 µM | [13] > 100 µM | [14] > 100 µM | [15] > 100 µM

COC(=O)C1=CC2CC1C(S(=O)(=O)c1ccccc1)C2S(=O)(=O)c1ccccc1 (configuration not stated)
inactive: [2] 19.7 µM | [3] 15.2 µM | [5] 44.3 µM | [18] 21.3 µM | [6] 14.8 µM | [19] 7.23 µM | [7] 17.6 µM | [8] 5.4 µM | [9] 14.3 µM | [10] 10.3 µM | [12] 17.3 µM | [13] 11.3 µM | [14] 2.92 µM | [15] 13.8 µM | [16] > 100 µM

C[N+]1([O-])CCC(O)(C2CC2)CC1 (configuration not stated)
inactive: [2] > 100 µM | [3] > 100 µM | [4] > 100 µM | [5] > 100 µM | [17] > 100 µM | [18] > 100 µM | [6] > 100 µM | [19] > 100 µM | [7] > 100 µM | [8] > 100 µM | [9] > 100 µM | [10] > 100 µM | [11] > 100 µM | [12] > 100 µM | [13] > 100 µM | [14] > 100 µM | [15] > 100 µM | [16] > 100 µM

COc1cc2oc(=O)cc(C)c2c(OC)c1OC(C)=O
inactive: [3] > 100 µM | [4] > 100 µM | [5] > 100 µM | [17] > 100 µM | [18] > 100 µM | [6] > 100 µM | [19] > 100 µM | [7] > 100 µM | [8] > 100 µM | [9] > 100 µM | [10] > 100 µM | [12] > 100 µM | [13] > 100 µM | [14] > 100 µM | [15] > 100 µM | [16] > 100 µM

Clc1cc2n[se]nc2cc1Cl
inactive: [1] > 100 µM | [2] > 100 µM | [3] > 100 µM | [4] > 100 µM | [5] > 100 µM | [17] 36.1 µM | [18] > 100 µM | [6] > 100 µM | [8] > 100 µM | [9] > 100 µM | [10] > 100 µM | [11] > 100 µM | [12] > 100 µM | [13] > 100 µM | [14] > 100 µM | [15] > 100 µM | [16] > 100 µM

Cc1cc(C)c(N[S+]([O-])c2cccc([N+](=O)[O-])c2)c(C)c1 (configuration not stated)
inactive: [1] > 100 µM | [3] > 100 µM | [4] > 100 µM | [18] > 100 µM | [19] > 100 µM | [7] > 100 µM | [8] > 100 µM | [9] > 100 µM | [10] > 100 µM | [11] > 100 µM | [12] > 100 µM | [13] > 100 µM | [14] > 100 µM | [15] > 100 µM | [16] > 100 µM

COc1cccc2c(SCC(=O)Nc3ccccc3-c3ccccc3NC(=O)CSc3c4ccccc4nc4c(OC)cccc34)c3ccccc3nc12
inactive: [1] 60.5 µM | [2] > 100 µM | [4] > 100 µM | [17] 17.5 µM | [18] > 100 µM | [6] > 100 µM | [19] > 100 µM | [7] > 100 µM | [10] > 100 µM | [11] 57.9 µM | [12] > 100 µM | [13] 60.1 µM | [14] > 100 µM | [15] > 100 µM | [16] > 100 µM

CCN(CC)CCCNC(=O)c1cc2cc(NC(=O)c3cc4cc([N+](=O)[O-])ccc4[nH]3)ccc2[nH]1
inactive: [1] 48.5 µM | [2] > 100 µM | [3] 29.9 µM | [4] 7.21 µM | [5] > 100 µM | [17] > 100 µM | [18] 44.3 µM | [6] > 100 µM | [19] 7.89 µM | [7] > 100 µM | [8] 16.9 µM | [9] > 100 µM | [10] 40.8 µM | [11] > 100 µM | [12] > 10 µM | [13] > 100 µM | [15] 35 µM | [16] > 100 µM

CCOC(=O)C1(Cc2ccccc2)Cc2cc3c(cc2C1=O)CCC3 (configuration not stated)
inactive: [1] > 100 µM | [2] > 100 µM | [3] > 100 µM | [4] > 100 µM | [5] > 100 µM | [17] > 100 µM | [18] > 100 µM | [6] > 100 µM | [19] > 100 µM | [7] > 100 µM | [8] > 100 µM | [9] > 100 µM | [10] > 100 µM | [11] > 100 µM | [12] > 100 µM | [13] 92 µM | [14] > 100 µM | [15] > 100 µM | [16] > 100 µM

CCCCCC(CN1CCOCC1)C(=O)/C=C/c1ccccc1 (configuration not stated)
inactive: [1] 2.07 µM | [2] 2 µM | [3] 2.96 µM | [4] 1.76 µM | [5] 2.71 µM | [17] 7.13 µM | [18] 3.46 µM | [6] 1.75 µM | [19] 2.3 µM | [7] 3.36 µM | [8] 2.11 µM | [9] 6.61 µM | [10] 1.76 µM | [11] 1.82 µM | [12] 2.77 µM | [13] 2 µM | [14] 1.94 µM | [15] 2.67 µM | [16] 3.43 µM

N#CC1Nc2ccccc2[C@@H](O)C1O (some centres not stated)
inactive: [1] > 100 µM | [2] > 100 µM | [3] > 100 µM | [4] > 100 µM | [5] > 100 µM | [17] > 100 µM | [18] > 100 µM | [6] > 100 µM | [19] > 100 µM | [8] > 100 µM | [10] > 100 µM | [11] > 100 µM | [12] > 100 µM | [13] > 100 µM | [14] > 100 µM | [15] > 100 µM
